Experiments:
Test in all cases: Competitive isoTOP-ABPP in situ (fragment-treated cells)
Type in all cases: cell-based
[1] = biological target: T1, cysteines in MDA-MB-231 and Ramos cells (Homo sapiens, UniProt P22307); settings: 200 μM, insitu, 231
T1 sequence (P22307 1-547): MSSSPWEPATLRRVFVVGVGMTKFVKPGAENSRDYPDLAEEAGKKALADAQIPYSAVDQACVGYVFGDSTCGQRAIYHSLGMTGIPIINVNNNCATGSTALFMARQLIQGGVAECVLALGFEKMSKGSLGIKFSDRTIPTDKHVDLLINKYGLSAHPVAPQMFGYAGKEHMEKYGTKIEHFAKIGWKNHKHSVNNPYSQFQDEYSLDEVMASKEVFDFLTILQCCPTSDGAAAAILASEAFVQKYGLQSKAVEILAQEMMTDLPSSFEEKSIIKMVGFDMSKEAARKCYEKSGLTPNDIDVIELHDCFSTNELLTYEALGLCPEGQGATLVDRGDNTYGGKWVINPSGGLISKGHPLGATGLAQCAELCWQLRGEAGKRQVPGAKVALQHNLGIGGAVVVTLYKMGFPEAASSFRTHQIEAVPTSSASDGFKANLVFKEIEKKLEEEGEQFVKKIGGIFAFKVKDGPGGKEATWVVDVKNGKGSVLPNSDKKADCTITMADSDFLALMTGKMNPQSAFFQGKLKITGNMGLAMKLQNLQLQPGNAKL

[2] = biological target: T2, cysteines in MDA-MB-231 and Ramos cells (Homo sapiens, UniProt P42166); settings: 200 μM, insitu
T2 sequence (P42166 1-694): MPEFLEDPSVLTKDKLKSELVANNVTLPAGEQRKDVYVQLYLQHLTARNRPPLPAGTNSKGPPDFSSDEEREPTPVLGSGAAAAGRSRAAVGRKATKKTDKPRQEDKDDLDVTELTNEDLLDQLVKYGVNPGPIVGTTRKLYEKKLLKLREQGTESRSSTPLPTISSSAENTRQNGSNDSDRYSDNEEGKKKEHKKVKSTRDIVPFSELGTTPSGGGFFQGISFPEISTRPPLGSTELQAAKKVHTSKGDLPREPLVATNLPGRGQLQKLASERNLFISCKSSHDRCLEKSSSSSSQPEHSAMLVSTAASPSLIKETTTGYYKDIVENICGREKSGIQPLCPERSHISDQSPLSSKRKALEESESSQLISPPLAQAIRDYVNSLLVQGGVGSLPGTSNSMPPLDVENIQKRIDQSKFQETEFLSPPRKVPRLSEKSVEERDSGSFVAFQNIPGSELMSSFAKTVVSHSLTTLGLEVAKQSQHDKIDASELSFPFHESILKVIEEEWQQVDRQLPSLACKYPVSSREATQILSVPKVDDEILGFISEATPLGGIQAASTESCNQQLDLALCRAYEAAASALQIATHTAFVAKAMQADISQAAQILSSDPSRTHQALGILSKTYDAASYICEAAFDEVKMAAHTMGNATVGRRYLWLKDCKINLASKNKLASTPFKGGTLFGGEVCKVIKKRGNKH

[3] = biological target: T3, cysteines in MDA-MB-231 and Ramos cells (Homo sapiens, UniProt Q9NQR4); settings: 200 μM, insitu
T3 sequence (Q9NQR4 1-276): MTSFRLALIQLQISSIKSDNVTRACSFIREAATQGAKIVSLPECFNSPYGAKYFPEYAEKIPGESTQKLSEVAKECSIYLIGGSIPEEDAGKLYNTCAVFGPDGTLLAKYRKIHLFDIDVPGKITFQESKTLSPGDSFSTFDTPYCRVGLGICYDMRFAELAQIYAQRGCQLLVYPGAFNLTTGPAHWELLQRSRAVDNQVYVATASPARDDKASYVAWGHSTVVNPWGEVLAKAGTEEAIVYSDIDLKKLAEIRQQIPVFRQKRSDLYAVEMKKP

[4] = biological target: T4, cysteines in MDA-MB-231 and Ramos cells (Homo sapiens, UniProt Q9Y3D0); settings: 200 μM, insitu
T4 sequence (Q9Y3D0 1-163): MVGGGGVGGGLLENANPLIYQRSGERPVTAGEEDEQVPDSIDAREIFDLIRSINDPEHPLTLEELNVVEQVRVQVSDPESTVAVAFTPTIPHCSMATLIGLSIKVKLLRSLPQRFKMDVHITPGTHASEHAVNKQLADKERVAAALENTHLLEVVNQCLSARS

[5] = biological target: T5, cysteines in MDA-MB-231 and Ramos cells (Homo sapiens, UniProt P13667); settings: 200 μM, insitu
T5 sequence (P13667 21-645): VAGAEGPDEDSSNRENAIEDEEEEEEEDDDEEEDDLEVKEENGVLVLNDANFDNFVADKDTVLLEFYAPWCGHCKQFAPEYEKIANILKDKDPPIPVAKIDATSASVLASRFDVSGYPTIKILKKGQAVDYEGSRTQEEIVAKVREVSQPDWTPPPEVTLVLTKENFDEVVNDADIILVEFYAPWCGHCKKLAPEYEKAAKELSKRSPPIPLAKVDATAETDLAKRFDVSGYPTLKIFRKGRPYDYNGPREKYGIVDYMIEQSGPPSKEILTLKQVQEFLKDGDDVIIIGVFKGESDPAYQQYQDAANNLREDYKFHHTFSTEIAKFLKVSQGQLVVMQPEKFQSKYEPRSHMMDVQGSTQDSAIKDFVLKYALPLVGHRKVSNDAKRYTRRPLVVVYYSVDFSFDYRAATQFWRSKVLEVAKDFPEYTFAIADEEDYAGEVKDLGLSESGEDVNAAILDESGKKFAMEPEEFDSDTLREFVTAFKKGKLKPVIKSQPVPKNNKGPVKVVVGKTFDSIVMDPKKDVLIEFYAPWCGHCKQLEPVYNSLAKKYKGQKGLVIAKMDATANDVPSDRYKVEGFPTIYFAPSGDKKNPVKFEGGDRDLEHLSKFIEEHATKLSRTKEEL

Compound | isoTOP-ABPP ratio P22307_C71 [1] | isoTOP-ABPP ratio P42166_C341 [2]; 231 | isoTOP-ABPP ratio P42166_C561 [2]; 231 | isoTOP-ABPP ratio Q9NQR4_C153 [3]; 231 | isoTOP-ABPP ratio Q9Y3D0_C93 [4]; 231 | isoTOP-ABPP ratio P13667_C206 [5]; 231 | isoTOP-ABPP ratio P13667_C555 [5]; 231 | further results
O=C(CCl)NC12CC3CC(CC(C3)C1)C2 [compound 21] | 8.3 | 1.7 | 1.4 | 0.9 | 0.5 | 0.8 |  | isoTOP-ABPP ratio, cysteine P22307_C307 [1]: 20.0; isoTOP-ABPP ratio, cysteine P42166_C518 [2]; 231: 1.4; isoTOP-ABPP ratio, cysteine P42166_C629 [2]; 231: 1.6
CC(C)CCOCCNC(=O)CCl [compound 27] | 20.0 | 0.6 | 0.8 | 1.3 | 0.7 | 1.0 | 1.2 | 
COc1ccccc1OCCNC(=O)CCl [compound 28] |  |  | 1.1 |  | 0.8 | 1.3 |  | isoTOP-ABPP ratio P22307_C94 [1]: 20.0
O=C(CCl)N1CCN(CC(=O)N2CCOCC2)CC1 [compound 29] |  |  |  |  |  |  |  | isoTOP-ABPP ratio P42166_C561 ([2]; ramos): 0.9; isoTOP-ABPP ratio P42166_C629 ([2]; ramos): 1.6; isoTOP-ABPP ratio Q9Y3D0_C93 ([4]; ramos): 1.0; isoTOP-ABPP ratio P13667_C206 ([5]; ramos): 1.4; isoTOP-ABPP ratio P13667_C555 ([5]; ramos): 1.5
C=CC(=O)N(Cc1cccnc1)c1cc(C(F)(F)F)cc(C(F)(F)F)c1 [compound 31] |  |  | 1.3 | 0.6 |  | 0.8 | 0.8 | isoTOP-ABPP ratio P42166_C341 ([2]; ramos): 2.0; isoTOP-ABPP ratio P42166_C561 ([2]; ramos): 2.5; isoTOP-ABPP ratio P42166_C684 ([2]; ramos): 3.3; isoTOP-ABPP ratio Q9NQR4_C153 ([3]; ramos): 1.4; isoTOP-ABPP ratio P13667_C206 ([5]; ramos): 1.1; isoTOP-ABPP ratio P13667_C555 ([5]; ramos): 1.1
C=CC(=O)Nc1cc(F)c(N2CCN(C(=O)OC(C)(C)C)CC2)c(F)c1 [compound 38] |  |  | 20.0 | 1.1 | 2.4 | 0.9 | 0.8 | isoTOP-ABPP ratio P42166_C518 [2]; 231: 2.2; isoTOP-ABPP ratio P42166_C684 [2]; 231: 3.0
Cc1ccc(C=C(C#N)C(=O)NCCN2CCOCC2)cc1 [compound 41] | 1.2 | 0.5 | 0.7 | 0.7 | 0.6 | 1.0 | 1.0 | isoTOP-ABPP ratio P22307_C307 [1]: 1.1
CC1CCc2ccccc2N1C(=O)CCl (stereo not shown) [compound 45] | 16.8 |  | 20.0 | 2.0 | 20.0 | 1.9 | 2.6 | isoTOP-ABPP ratio P22307_C94 [1]: 20.0; isoTOP-ABPP ratio P42166_C684 [2]; 231: 6.8

From patent US10670605B2, “Cysteine reactive probes and uses thereof” (The Scripps Research Institute, priority 2015, dated 2020)
